# Reference: ChEMBL document CHEMBL3044631, “Synthesis of 2-[4,5-dimethyl-1-(phenylamino)-1H-imidazol-2-ylthio]-N-(thiazole-2-yl)acetamide derivatives and their anticancer activities” (2013)
# Legend:
# Format in all cases: functional
# [1] = system: IGROV-1; assay: Anticancer activity against Homo sapiens (human) IGROV1 cells assessed as cell growth promotion at 10 uM after 48 hr by SRB assay
# [2] = system: UACC-62; assay: Anticancer activity against Homo sapiens (human) UACC62 cells assessed as cell growth promotion at 10 uM after 48 hr by SRB assay
# [3] = system: SK-MEL-5; assay: Anticancer activity against Homo sapiens (human) SK-MEL-5 cells assessed as cell growth promotion at 10 uM after 48 hr by SRB assay
# [4] = system: SN12C; assay: Anticancer activity against Homo sapiens (human) SN12C cells assessed as cell growth promotion at 10 uM after 48 hr by SRB assay
# [5] = system: ACHN; assay: Anticancer activity against Homo sapiens (human) ACHN cells assessed as cell growth promotion at 10 uM after 48 hr by SRB assay
# [6] = system: A498; assay: Anticancer activity against Homo sapiens (human) A498 cells assessed as cell growth promotion at 10 uM after 48 hr by SRB assay
# [7] = system: NCI/ADR-RES; assay: Anticancer activity against Homo sapiens (human) NCI/ADR-RES cells assessed as cell growth promotion at 10 uM after 48 hr by SRB assay
# [8] = system: KM12; assay: Anticancer activity against Homo sapiens (human) KM12 cells after 48 hr by SRB assay; conditions: KM12, 48 h
# [9] = system: HT-29; assay: Anticancer activity against Homo sapiens (human) HT-29 cells after 48 hr by SRB assay; conditions: HT-29, 48 h
# [10] = system: MDA-MB-468; assay: Anticancer activity against Homo sapiens (human) MDA-MB-468 cells assessed as cell growth promotion at 10 uM after 48 hr by SRB assay
# [11] = system: HCT-116; assay: Anticancer activity against Homo sapiens (human) HCT116 cells assessed as cell growth promotion at 10 uM after 48 hr by SRB assay
# [12] = system: HCC 2998; assay: Anticancer activity against Homo sapiens (human) HCC2998 cells assessed as cell growth promotion at 10 uM after 48 hr by SRB assay
# [13] = system: NCI-H226; assay: Anticancer activity against Homo sapiens (human) NCI-H226 cells assessed as cell growth promotion at 10 uM after 48 hr by SRB assay
# [14] = system: HOP-62; assay: Anticancer activity against Homo sapiens (human) HOP62 cells assessed as cell growth promotion at 10 uM after 48 hr by SRB assay
# [15] = system: A549; assay: Anticancer activity against Homo sapiens (human) A549/ATCC cells assessed as cell growth promotion at 10 uM after 48 hr by SRB assay
# [16] = system: MOLT-4; assay: Anticancer activity against Homo sapiens (human) MOLT4 cells assessed as cell growth promotion at 10 uM after 48 hr by SRB assay
# [17] = system: SK-MEL-28; assay: Anticancer activity against Homo sapiens (human) SK-MEL-28 cells assessed as cell growth promotion at 10 uM after 48 hr by SRB assay
# [18] = system: SNB-75; assay: Anticancer activity against Homo sapiens (human) SNB75 cells assessed as cell growth promotion at 10 uM after 48 hr by SRB assay
# [19] = system: SF-295; assay: Anticancer activity against Homo sapiens (human) SF295 cells assessed as cell growth promotion at 10 uM after 48 hr by SRB assay
# [20] = system: NCI-H460; assay: Anticancer activity against Homo sapiens (human) NCI-H460 cells after 48 hr by SRB assay; conditions: NCI-H460, 48 h
# [21] = system: MDA-MB-468; assay: Anticancer activity against Homo sapiens (human) MDA-MB-468 cells after 48 hr by SRB assay; conditions: MDA-MB-468, 48 h
# [22] = system: SK-OV-3; assay: Anticancer activity against Homo sapiens (human) SKOV3 cells after 48 hr by SRB assay; conditions: SK-OV-3, 48 h
# [23] = system: OVCAR-8; assay: Anticancer activity against Homo sapiens (human) OVCAR8 cells after 48 hr by SRB assay; conditions: OVCAR-8, 48 h; for CC50: read-out: LC50 (the source's name)
# [24] = system: OVCAR-3; assay: Anticancer activity against Homo sapiens (human) OVCAR3 cells after 48 hr by SRB assay; conditions: OVCAR-3, 48 h
# [25] = system: UACC-62; assay: Anticancer activity against Homo sapiens (human) UACC62 cells after 48 hr by SRB assay; conditions: UACC-62, 48 h
# [26] = system: MDA-MB-435; assay: Anticancer activity against Homo sapiens (human) MDA-MB-435 cells after 48 hr by SRB assay; conditions: MDA-MB-435, 48 h
# [27] = system: SK-MEL-2; assay: Anticancer activity against Homo sapiens (human) SK-MEL-2 cells after 48 hr by SRB assay; conditions: SK-MEL-2, 48 h
# [28] = system: Malme-3M; assay: Anticancer activity against Homo sapiens (human) MALME-3M cells after 48 hr by SRB assay; conditions: for CC50: read-out: LC50 (the source's name)
# [29] = system: TK-10; assay: Anticancer activity against Homo sapiens (human) TK10 cells after 48 hr by SRB assay; conditions: TK-10, 48 h
# [30] = system: SN12C; assay: Anticancer activity against Homo sapiens (human) SN12C cells after 48 hr by SRB assay
# [31] = system: ACHN; assay: Anticancer activity against Homo sapiens (human) ACHN cells after 48 hr by SRB assay
# [32] = system: 786-0; assay: Anticancer activity against Homo sapiens (human) 786-0 cells after 48 hr by SRB assay; conditions: 786-0, 48 h
# [33] = system: RXF 393; assay: Anticancer activity against Homo sapiens (human) RXF393 cells assessed as cell growth promotion at 10 uM after 48 hr by SRB assay
# [34] = system: HL-60(TB); assay: Anticancer activity against Homo sapiens (human) HL-60(TB) cells assessed as cell growth promotion at 10 uM after 48 hr by SRB assay
# [35] = system: CCRF-CEM; assay: Anticancer activity against Homo sapiens (human) CCRF-CEM cells assessed as cell growth promotion at 10 uM after 48 hr by SRB assay
structure (smiles),measurement,setting,value
COc1ccc(Nn2c(SCC(=O)Nc3nc(-c4ccc(Cl)cc4)cs3)nc(C)c2C)cc1,Activity,[1],70.85%
same,Activity,[2],49.53%
same,Activity,[3],-21.47%
same,Activity,[4],67.16%
same,Activity,[5],52.04%
same,Activity,[6],69.49%
same,Activity,[7],23.11%
same,GI50,[8],1.84 µM
same,LC50 (concentration killing 50% of cells),[8],> 100 µM
same,TGI,[8],11.1 µM
same,GI50,[9],4.61 µM
same,LC50,[9],> 100 µM
same,TGI,[9],50.4 µM
same,Activity,[10],26.17%
same,Activity,[11],27.81%
same,Activity,[12],54.24%
same,Activity,[13],60.46%
same,Activity,[14],100.44%
same,Activity,[15],44%
same,Activity,[16],36.1%
same,Activity,[17],82.63%
same,Activity,[18],56.63%
same,Activity,[19],43.89%
same,GI50,[20],2.69 µM
same,LC50,[20],> 100 µM
same,TGI,[20],10.6 µM
same,GI50,[21],0.57 µM
same,LC50,[21],> 100 µM
same,TGI,[21],7.73 µM
same,GI50,[22],4.24 µM
same,LC50 (50% lethal concentration),[22],> 100 µM
same,TGI,[22],> 100 µM
same,GI50,[23],4.82 µM
same,TGI,[23],> 100 µM
same,CC50,[23],> 100 µM
same,GI50,[24],3.13 µM
same,LC50 (50% lethal concentration),[24],> 100 µM
same,TGI,[24],24.2 µM
same,GI50,[25],3.62 µM
same,LC50,[25],> 100 µM
same,TGI,[25],> 100 µM
same,GI50,[26],3.22 µM
same,LC50 (concentration killing 50% of cells),[26],> 100 µM
same,TGI,[26],> 100 µM
same,GI50,[27],15.7 µM
same,LC50 (concentration killing 50% of cells),[27],> 100 µM
same,TGI,[27],66.8 µM
same,GI50,[28],2.9 µM
same,TGI,[28],> 100 µM
same,CC50,[28],> 100 µM
same,GI50,[29],14.8 µM
same,LC50 (50% lethal concentration),[29],> 100 µM
same,TGI,[29],80.9 µM
same,GI50,[30],2.3 µM
same,LC50 (concentration killing 50% of cells),[30],> 100 µM
same,TGI,[30],7.52 µM
same,GI50,[31],2.27 µM
same,LC50 (concentration killing 50% of cells),[31],> 100 µM
same,TGI,[31],8.76 µM
same,GI50,[32],3.46 µM
same,LC50 (lethal concentration 50),[32],> 100 µM
same,TGI,[32],18.2 µM
Cc1nc(SCC(=O)Nc2nc(-c3ccc(Cl)cc3)cs2)n(Nc2ccccc2)c1C,Activity,[1],68.44%
same,Activity,[2],34.83%
same,Activity,[3],10.19%
same,Activity,[4],39.25%
same,Activity,[33],72.14%
same,Activity,[5],49.37%
same,Activity,[6],74.31%
same,Activity,[7],20.41%
same,GI50,[8],2.95 µM
same,LC50 (concentration killing 50% of cells),[8],41.4 µM
same,TGI,[8],14 µM
same,GI50,[9],3.78 µM
same,LC50,[9],49.5 µM
same,TGI,[9],15.4 µM
same,Activity,[10],21.05%
same,Activity,[11],29.45%
same,Activity,[12],69.51%
same,Activity,[13],59.84%
same,Activity,[14],48.49%
same,Activity,[15],28.85%
same,Activity,[16],41.02%
same,Activity,[34],42.07%
same,Activity,[17],54.29%
same,Activity,[18],39.12%
same,Activity,[19],31.02%
same,GI50,[20],2.89 µM
same,LC50,[20],82.1 µM
same,TGI,[20],11 µM
same,GI50,[21],1.45 µM
same,LC50,[21],40.4 µM
same,TGI,[21],6.27 µM
same,GI50,[22],5.91 µM
same,LC50 (50% lethal concentration),[22],47.4 µM
same,TGI,[22],19.8 µM
same,GI50,[23],2.71 µM
same,TGI,[23],7.73 µM
same,CC50,[23],38.9 µM
same,GI50,[24],3 µM
same,LC50 (50% lethal concentration),[24],36.2 µM
same,TGI,[24],12.1 µM
same,GI50,[25],3.09 µM
same,LC50,[25],50.3 µM
same,TGI,[25],16.1 µM
same,GI50,[26],3.25 µM
same,LC50 (concentration killing 50% of cells),[26],> 100 µM
same,TGI,[26],21.8 µM
same,GI50,[27],10.1 µM
same,LC50 (concentration killing 50% of cells),[27],75.5 µM
same,TGI,[27],27.6 µM
same,GI50,[28],10.8 µM
same,TGI,[28],37.6 µM
same,CC50,[28],> 100 µM
same,GI50,[29],3.65 µM
same,LC50 (50% lethal concentration),[29],40.7 µM
same,TGI,[29],13.8 µM
same,GI50,[30],2.38 µM
same,LC50 (concentration killing 50% of cells),[30],35.8 µM
same,TGI,[30],10.1 µM
same,GI50,[31],3.67 µM
same,LC50 (concentration killing 50% of cells),[31],51.5 µM
same,TGI,[31],14.1 µM
same,GI50,[32],3.6 µM
same,LC50 (lethal concentration 50),[32],38.9 µM
same,TGI,[32],13.7 µM
Cc1nc(SCC(=O)Nc2nccs2)n(Nc2ccc(Cl)cc2)c1C,Activity,[1],126.1%
same,Activity,[2],104.39%
same,Activity,[3],84.95%
same,Activity,[4],96.39%
same,Activity,[33],91.41%
same,Activity,[5],104.69%
same,Activity,[6],101.93%
same,Activity,[7],100.18%
same,Activity,[10],105.66%
same,Activity,[11],94.47%
same,Activity,[12],115.62%
same,Activity,[13],93.51%
same,Activity,[14],88.3%
same,Activity,[15],101.96%
same,Activity,[16],117.57%
same,Activity,[34],95.84%
same,Activity,[35],99.59%
same,Activity,[17],111.02%
same,Activity,[18],92.05%
same,Activity,[19],97.66%
